Measured values reported in patent US8962844B2, “1,3,4-oxadiazole and 1,3,4-thiadiazole β-lactamase inhibitors” (priority 2012, dated 2015).
Counter-ions that a name gives are not always drawn.

Assays:
[1] = tested on: bacterial strains that express the class D cephalosporinase OXA-15; assay: Standard BLI potentiation MIC / synergy MIC (sMIC) assays run in the presence of a β-lactam, OXA-15 expressing strains; assay type: cell-based, E. coli; settings: BLI in combination with a β-lactam; comparison with Avibactam (comparator compound CCC)
Summary of the method: (§1)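 Isogenic E. coli DH10B carrying cloned β-lactamase genes on pBR322-derived plasmid (blaTEM-1 promoter, tetracycline 25 μg/mL) tested by CLSI broth microdilution in CAMHB. Test compound and β-lactam each diluted and combined; MIC reported in presence of β-lactam.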

[2] = tested on: bacterial strains that express KPC β-lactamases; assay: Standard BLI potentiation MIC / synergy MIC (sMIC) assays run in the presence of a β-lactam, KPC expressing strains; assay type: cell-based; settings: more active for at least one KPC strain and/or better spectrum of activity than Avibactam; BLI in combination with a β-lactam
Summary of the method: as §1

SMILES	activity against bacterial strains that express the class D cephalosporinase OXA-15, compared with Avibactam [1]	activity and/or spectrum of activity against bacterial strains that express KPC β-lactamases, compared with Avibactam [2]
N[C@H]1C[C@H](c2nnc([C@@H]3CC[C@@H]4CN3C(=O)N4OS(=O)(=O)O)s2)C1 [Compound 783, (2S,5R)-2-(5-((1r,3S)-3-aminocyclobutyl)-1,3,4-thiadiazol-2-yl)-7-oxo-1,6-diazabicyclo[3.2.1]octan-6-yl hydrogen sulfate]	more active than Avibactam	more active than Avibactam
N=C(N)N[C@H]1C[C@@H](c2nnc([C@@H]3CC[C@@H]4CN3C(=O)N4OS(=O)(=O)O)s2)C1 [Compound 784, (2S,5R)-2-(5-((1s,3R)-3-guanidinocyclobutyl)-1,3,4-thiadiazol-2-yl)-7-oxo-1,6-diazabicyclo[3.2.1]octan-6-yl hydrogen sulfate]	more active than Avibactam	more active than Avibactam
N=C(N)NCCc1nnc([C@@H]2CC[C@@H]3CN2C(=O)N3OS(=O)(=O)O)s1 [Compound 794, (2S,5R)-2-(5-(2-guanidinoethyl)-1,3,4-thiadiazol-2-yl)-7-oxo-1,6-diazabicyclo[3.2.1]octan-6-yl hydrogen sulfate]	more active than Avibactam	more active than Avibactam
N[C@H]1C[C@@H](c2nnc([C@@H]3CC[C@@H]4CN3C(=O)N4OS(=O)(=O)O)s2)C1 [Compound 795, (2S,5R)-2-(5-((1s,3R)-3-aminocyclobutyl)-1,3,4-thiadiazol-2-yl)-7-oxo-1,6-diazabicyclo[3.2.1]octan-6-yl hydrogen sulfate]	more active than Avibactam	more active than Avibactam
